# Measurements taken from US20260207760A1, “COMBINATIONS OF CD33 ANTIBODY DRUG CONJUGATE WITH CHEMOTHERAPEUTIC AGENTS” (Glykos Biomedical Oy, priority 2022, published 2026).
# “And” between values parts separate entries of the source, which are not always exact repeats. Equal entries are not always repeated. Structures can show the parent of a compound that is named as a salt. Where two headings read alike, the source gives them in different places.
# Tests used:
# [1] = test system: MOLM-13 cells; assay: Toxicity assay of chemotherapeutic agents, MOLM-13 cells (PrestoBlue viability); type: cell-based, human; conditions: 4 days
# Experimental: For toxicity assay, MOLM-13 cells were seeded for 10 000 cells/well of 96-well plate. The tested chemotherapeutic agents were added as 2-fold stock solutions and incubated in duplicate with cells for 4 days. The compounds were tested at concentrations 0.1, 1, 10, 100, 1000, and 10 000 nM. […] After 4 days incubation, the viability of the cells was determined with PrestoBlue Cell Viability Reagent (Life Technologies) according to the manufacturer's instructions. The percentage of viable cells was calculated by dividing the sample absorbance value with untreated cell control value and multiplying by 100%.
# [2] = test system: patient blasts; assay: Ex vivo AML patient samples, viable blasts by flow cytometry, 5-day assay; type: cell-based, human; conditions: five days; for IC50: six AML patient samples, read-out: median IC50 (absolute) against blasts; for activity against blasts: AML patient samples
# Experimental: (§1) AML cells were rapidly thawed in a 37° C. water bath and treated with Denarase (250 U/μl). The cells were cultured in SFEM II medium ([…] Technologies) supplemented with 20 ng/ml SCF, 20 ng/ml TPO, and 20 ng/ml FLT3-L. The compounds were added the same day to 96-well conical bottom plates at seven different concentrations using an acoustic liquid handling device (Echo 550, Labcyte Inc), on top of 10 μl of culturing medium/well. A total of 100,000 cells were seeded per well in a volume of 100 μl. […] All antibodies were obtained from BD biosciences and used at a dilution of 1:100, except CD3 in 1:50. Following a 20-minute incubation with the antibodies, the cells were centrifuged, and 25 μl of Annexin-V and 7-AAD mixture, both diluted 1:50 in Annexin V binding buffer, were added to each well. After a 10-minute incubation, the total number of viable blasts (CD34 or CD117), lymphocytes (CD3) and CD33-positive cells in each well was counted using Forecyte software (Sartorius) and normalized to DMSO control containing wells.
# (§2) The AML samples were exposed to LNAuM, lintuzumab, MMAU, or gemtuzumab ozogamicin (GO; Mylotarg, Pfizer) for five days, after which remaining viable blast and lymphocytes were quantified using flow cytometry. […] Subsequently, we assessed toxicity against lymphocytes (CD33-negative) in the same samples.
# [3] = test system: MOLM-13 cells; assay: MOLM-13 cell mouse xenograft efficacy study; conditions: for toxicity in mice: clinical signs, general behavior, macroscopic changes in major organs; for Average tumor size / Tumor size of individual mice / TGI (average tumor size compared to Vehicle): day 15 after tumor inoculation, combination of the two; for Average tumor size / Tumor size of individual mice: LNAuM 0.3 mg/kg single dose i.v., venetoclax 100 mg/kg p.o. daily; for TGI (average tumor size compared to Vehicle): LNAuM 0.3 mg/kg single dose
# [4] = test system: patient lymphocytes; assay: Ex vivo AML patient samples, viable lymphocytes by flow cytometry, 5-day assay; conditions: CD33-negative lymphocytes in AML patient samples, five days
# Experimental: as §1, §2
# [5] = test system: HL-60 cells; assay: Toxicity assay of chemotherapeutic agents, HL-60 cells (PrestoBlue viability); type: cell-based, human
# Experimental: HL-60 cells (ATCC®, cat. no. CCL-240™), derived from human promyelocytic leukemia, were cultured in Iscove's Modified Dulbecco's Medium (Gibco, Life Technologies) supplemented with 20% heat inactivated FBS (Gibco, Life Technologies).
# For toxicity assay, HL-60 cells were seeded for 7500 cells/well of 96-well plate. The chemotherapeutic agents were added as 2-fold stock solutions and incubated with cells for 5 days.
# All other compounds were tested at concentrations 0.1, 1, 10, 100, 1000, and 10 000 nM. […] The percentage of viable cells was calculated by dividing the sample absorbance value with untreated cell control value and multiplying by 100%.
# All compounds were tested at concentrations of 0.1-10 000 nM.
# IC50 values were determined after average % and standard deviations were transferred to GraphPad Prism 9.1.2. Dose-response curves were generated and the IC50% values of the samples were obtained by non-linear regression analysis (Inhibitor vs. response, variable slope (four parameters)) using the software.
# [6] = test system: KG-1 cells; assay: Toxicity of chemotherapeutic agents, KG-1 cells (PrestoBlue viability); type: cell-based; conditions: 4 days
# Experimental: Toxicity of chemotherapeutic agents was tested with high CD33-positive KG-1 cell line (DSMZ-German Collection of Microorganisms and Cell Cultures; Cat. No. ACC 14). KG-1 cells were seeded to non-treated 96-well plate 15000 cells/well and diluted compounds were added to cells in duplicates. Dilution series (1:10) of compounds were prepared starting from 20 μM to 0.2 nM and when added to cells they diluted 2× more. Cell control was untreated cells in culture medium.
# Cells with chemotherapeutic agents were cultured for 4 days and then the viability was measured with PrestoBlue cell viability reagent according to the manufacturer's (Life Technologies) instructions. Results were calculated from 5-hour Prestoblue reaction and the percentage of viable cells was calculated by dividing the sample absorbance value with cell control value.
# [7] = Homo sapiens, 120 h, HL-60 cells, 5 days incubation, read-out: IC50
compound,measurement,setting,value
CO[C@@H]1[C@H](N(C)C(=O)c2ccccc2)C[C@H]2O[C@]1(C)n1c3ccccc3c3c4c(c5c6ccccc6n2c5c31)C(=O)NC4 [Midostaurin],IC50,"[1]; Homo sapiens, 96 h",14 nM
"LNAuM: antibody-drug-conjugate (ADC) comprising the lintuzumab antibody, conjugated to MMAU, via a cleavable linker",IC50,[2],16 nM
same,tumors disappeared and did not regrow during the whole study,[3]; LNAuM single dose of 3 mg/kg,6/6
same,tumor growth versus control group,"[3]; all doses (LNAuM 0.1-3 mg/kg single dose; venetoclax 100 mg/kg, 10 daily doses)",inhibited tumor growth
same,toxicity in mice,[3],no toxicity
same,Average tumor size,[3],201 mm^3
same,Tumor size of individual mice,[3],204.723 mm^3 and 229.992 mm^3 and 239.704 mm^3 and 153.6 mm^3 and 106.624 mm^3 and 271.472 mm^3
same,TGI (average tumor size compared to Vehicle),[3]; venetoclax 100 mg/kg,0.46
same,outcome at study end,"[3]; day 54 after tumor inoculation, venetoclax 100 mg/kg, LNAuM 1 mg/kg, combination","two animals were sacrificed due to tumor growth, and in the rest of the animals there was a palpable tumor"
same,cytotoxic activity against lymphocytes,[4],did not exhibit cytotoxic activity
lintuzumab: anti-CD33 antibody comprising the light chain of SEQ ID NO:1 and the heavy chain of SEQ ID NO:2,activity against blasts,[2],modest or no activity
same,tumor growth inhibition,"[3]; lintuzumab naked antibody 10 mg/kg single dose, non-binding IgG1 ADC control 3 mg/kg single dose",only modest tumor growth inhibition
same,cytotoxic activity against lymphocytes,[4],did not exhibit cytotoxic activity
CC1(C)CCC(CN2CCN(c3ccc(C(=O)NS(=O)(=O)c4ccc(NCC5CCOCC5)c([N+](=O)[O-])c4)c(Oc4cnc5[nH]ccc5c4)c3)CC2)=C(c2ccc(Cl)cc2)C1 [Venetoclax],IC50,[5]; [7],112 nM
same,IC50,"[1]; Homo sapiens, 96 h",24 nM
same,toxicity in mice,[3],no toxicity
same,Average tumor size,[3],194 mm^3
same,Tumor size of individual mice,[3],134.946 mm^3 and 184.96 mm^3 and 249.64 mm^3 and 246.895 mm^3 and 122.793 mm^3 and 226.1475 mm^3
same,TGI (average tumor size compared to Vehicle),[3]; venetoclax 100 mg/kg,0.45
same,IC50,"[6]; Homo sapiens, 96 h",2300 nM
COc1cccc2c1C(=O)c1c(O)c3c(c(O)c1C2=O)C[C@@](O)(C(C)=O)C[C@@H]3O[C@H]1C[C@H](N)[C@H](O)[C@H](C)O1 [Daunorubicin-HCl],IC50,"[5]; Homo sapiens, HL-60, 120 h",15 nM
same,IC50,"[1]; Homo sapiens, 96 h",13 nM
same,IC50,"[6]; Homo sapiens, 96 h",55 nM
"CCC(C)C(C(CC(=O)N1CCCC1C(OC)C(C)C(=O)NC(C)C(OC1OC(C(=O)O)C(O)C(O)C1O)c1ccccc1)OC)N(C)C(=O)C(NC(=O)C(NC)C(C)C)C(C)C [MMAU, monomethylauristatin E β-D-glucuronide]",activity against blasts,[2],modest or no activity
same,cytotoxic activity against lymphocytes,[4],did not exhibit cytotoxic activity
gemtuzumab ozogamicin [GO],IC50,[2],0.3 nM
same,cytotoxic activity against lymphocytes,[4],significant lymphocyte toxicity
same,IC50,[4]; read-out: median IC50 against lymphocytes,9 nM
Nc1ccn([C@@H]2O[C@H](CO)[C@@H](O)[C@@H]2O)c(=O)n1 [Cytarabine],IC50,[5]; [7],298 nM
same,IC50,"[1]; Homo sapiens, 96 h",112 nM
same,IC50,"[6]; Homo sapiens, 96 h",230 nM
Gilteritinib hemifumarate,IC50,[5]; read-out: IC50,425 nM
same,IC50,[1],24 nM
same,IC50,[6],1700 nM
